Experimental data: US11324768B2, “Applications of triacetyl-3-hydroxyl phenyl adenosine in treating vascular inflammations or improving vascular endothelium functions” (priority 2016, dated 2022)

Legend:
TNF-α = assay: Serum inflammatory factor TNF-α in ApoE−/− mice (ELISA); format: in vivo; parameters: unit not given here
Procedure: After 1 week of adaptive feeding, the animals were randomly divided into 7 groups according to body weight: normal control group, model control group A769662 (30 mg/kg) administration group, metformin (260 mg/kg) administration group, IMM-H007 low, medium, and high administration groups (50, 100, 200 mg/kg), 8 in each group, and were given a high-fat diet (78.6% basal diet, 10% lard, 1.0% cholesterol, 10% egg yolk powder, and 0.4% bile salt), […] body weight, and were continuously administered and fed for 8 weeks to establish an atherosclerosis model.
(2) Effect of IMM-H007 on Serum Inflammatory Factors TNF-α and VCAM-1 in ApoE−/− Mice
Operated according to kit instructions

[1] = system: third-order mesenteric artery; assay: Mesenteric microvascular endothelial function in ApoE−/− mice (pressure myography, Ach / SNP relaxation); format: in vivo
Procedure: After 1 week of adaptive feeding, the animals were randomly divided into 7 groups according to body weight: normal control group, model control group A769662 (30 mg/kg) administration group, metformin (260 mg/kg) administration group, IMM-H007 low, medium, and high administration groups (50, 100, 200 mg/kg), 8 in each group, and were given a high-fat diet (78.6% basal diet, 10% lard, 1.0% cholesterol, 10% egg yolk powder, and 0.4% bile salt), and simultaneously administered intragastrically at a dose of 0.1 ml/10 g body weight, and were continuously administered and fed for 8 weeks to establish an atherosclerosis model.
PSS and KPSS solutions were configured according to the instructions and used at the same time of the day. The PSS solution was taken out before the start of the experiment and pre-oxygenated for about 20 min. The ApoE−/− mice, which were fed with high-fat and simultaneously administered for 10 weeks, were anesthetized with pentobarbital sodium. The mice were supine and fixed. The abdominal cavity was opened along the median line. The mesenteric vascular bed was isolated and placed in the pre-oxygenated 20-minute PSS buffer. Under a stereomicroscope, a third-order mesenteric artery with a length of about 3 mm was carefully isolated. Firstly, the blood vessel was fixed to a P1 glass cannula and the coil was tightened. Note: the proximal end should be connected to the P1 end, and the P2 end vessel should be fixed and the coil should be tightened. The Chamber was placed on a objective table of the microscope and the data connection between Chamber and Interface was checked. The bath cover was covered and the oxygen was introduced, to exhaust air in the pipeline. The blood vessel image was found under the microscope and then the microscope was turned to camera mode. (The knob on the side of the eyepiece was rotated to graph.) MyoVIEW software was opened. The Camera window Capture was clicked to display the blood vessel image. The equilibration of blood vessels slowly rose from 10 mmHg to 60 mmHg, and each step was 300 s. After the equilibration procedure was completed, the solution in the bath was drained. Blood vessels were stimulated (10 ml) for 2 min using a 37° C. pre-heated KPSS solution, and changes in vasoconstriction were observed, and the blood vessels were then eluted using the PSS solution to baseline. The blood vessels were equilibrated at 60 mmHg 37° C. for 45 minutes, during which time the fluid was replaced every 20 minutes. The experiment was started: observing the vasodilatory response induced by 10^−10 to 10^−5 M Ach after pre-contraction with 2 μM phenylephrine, to evaluate the effect of the drugs on the vascular endothelial function. At the end of the experiment, the fresh 37° C. pre-heated PSS buffer was replaced for equilibration for 30 min, and the 10^−10M to 10^−3 M sodium nitroprusside were given to induce vasodilatory response after pre-contraction with 2 μM phenylephrine, to evaluate the effect of the drugs on vascular smooth muscle function. LD1 was the diameter of blood vessel after relaxation by administration of different concentrations of ACh or sodium nitroprusside, LD2 was the diameter of blood vessels after pre-contraction with phenylephrine, and LD3 represented the maximum diastolic diameter of blood vessel without any stimulant.
The relaxation response to Ach and sodium nitroprusside after pre-contraction with phenylephrine was expressed as the percentage increase in the vascular diameter: % Relaxation=(LD1−LD2)/(LD3−LD2)×100.

With `CC(=O)OCC1OC(n2cnc3c(Nc4cccc(O)c4)ncnc32)C(OC(C)=O)C1OC(C)=O` (stereo not shown) [IMM-H007, 2′,3,′ 5′-triacetyl-N^6(3-hydroxyphenyl)adenosine] the “serum TNF-α” value (TNF-α; 100 mg/kg) was 256.3 ± 46.4, the “serum TNF-α” value (TNF-α; 200 mg/kg) was 250.2 ± 27.8 and the “sodium nitroprusside endothelium-independent relaxation of microvascular” value ([1]; 50 mg/kg, 1 × 10^−3 M SNP) was 96.5 ± 6.3%. The “sodium nitroprusside endothelium-independent relaxation of microvascular” value ([1]; 50 mg/kg, 1 × 10^−4 M SNP) was 80.3 ± 12.1%, the “acetylcholine-induced endothelium-dependent relaxation of microvascular” value ([1]; 50 mg/kg, 1 × 10^−5 M Ach) was 95.0 ± 4.4 % and the “sodium nitroprusside endothelium-independent relaxation of microvascular” value ([1]; 50 mg/kg, 1 × 10^−5 M SNP) was 74.5 ± 12.8%. The “acetylcholine-induced endothelium-dependent relaxation of microvascular” value ([1]; 50 mg/kg, 1 × 10^−6 M Ach) was 87.3 ± 5.0 %, the “sodium nitroprusside endothelium-independent relaxation of microvascular” value ([1]; 50 mg/kg, 1 × 10^−6 M SNP) was 66.4 ± 11.6% and the “acetylcholine-induced endothelium-dependent relaxation of microvascular” value ([1]; 50 mg/kg, 1 × 10^−7 M Ach) was 48.7 ± 12.8%. For the same compound, the “sodium nitroprusside endothelium-independent relaxation of microvascular” value ([1]; 50 mg/kg, 1 × 10^−7 M SNP) was 60.9 ± 8.5%, the “acetylcholine-induced endothelium-dependent relaxation of microvascular” value ([1]; 50 mg/kg, 1 × 10^−8 M Ach) was 29.3 ± 21.8% and the “sodium nitroprusside endothelium-independent relaxation of microvascular” value ([1]; 50 mg/kg, 1 × 10^−8 M SNP) was 52.9 ± 14.2%. The “acetylcholine-induced endothelium-dependent relaxation of microvascular” value ([1]; 50 mg/kg, 1 × 10^−9 M Ach) was 12.9 ± 12.6%, the “sodium nitroprusside endothelium-independent relaxation of microvascular” value ([1]; 50 mg/kg, 1 × 10^−9 M SNP) was 43.9 ± 18.2% and the “acetylcholine-induced endothelium-dependent relaxation of microvascular” value ([1]; 50 mg/kg, 1 × 10^−10 M Ach) was 5.0 ± 5.1%. The “sodium nitroprusside endothelium-independent relaxation of microvascular” value ([1]; 50 mg/kg, 1 × 10^−10 M SNP) was 19.9 ± 10.1%, the “microvascular endothelial dysfunction caused by high fat” value ([1]; 50 mg/kg, compared with the model control group) was “significantly improve” and the “sodium nitroprusside endothelium-independent relaxation of microvascular” value ([1]; 100 mg/kg, 1 × 10^−3 M SNP) was 96.5 ± 3.6%. For the same compound, the “sodium nitroprusside endothelium-independent relaxation of microvascular” value ([1]; 100 mg/kg, 1 × 10^−4 M SNP) was 87.5 ± 10.9%, the “acetylcholine-induced endothelium-dependent relaxation of microvascular” value ([1]; 100 mg/kg, 1 × 10^−5 M Ach) was 93.9 ± 12.9 % and the “sodium nitroprusside endothelium-independent relaxation of microvascular” value ([1]; 100 mg/kg, 1 × 10^−5 M SNP) was 78.4 ± 13.0%. For the same compound, the “acetylcholine-induced endothelium-dependent relaxation of microvascular” value ([1]; 100 mg/kg, 1 × 10^−6 M Ach) was 82.9 ± 8.5 %, the “sodium nitroprusside endothelium-independent relaxation of microvascular” value ([1]; 100 mg/kg, 1 × 10^−6 M SNP) was 64.6 ± 12.2% and the “acetylcholine-induced endothelium-dependent relaxation of microvascular” value ([1]; 100 mg/kg, 1 × 10^−7 M Ach) was 43.1 ± 21.8%. The “sodium nitroprusside endothelium-independent relaxation of microvascular” value ([1]; 100 mg/kg, 1 × 10^−7 M SNP) was 51.5 ± 17.9%, the “acetylcholine-induced endothelium-dependent relaxation of microvascular” value ([1]; 100 mg/kg, 1 × 10^−8 M Ach) was 18.6 ± 17.2% and the “sodium nitroprusside endothelium-independent relaxation of microvascular” value ([1]; 100 mg/kg, 1 × 10^−8 M SNP) was 44.9 ± 21.9%. For the same compound, the “acetylcholine-induced endothelium-dependent relaxation of microvascular” value ([1]; 100 mg/kg, 1 × 10^−9 M Ach) was 10.2 ± 12.0%, the “sodium nitroprusside endothelium-independent relaxation of microvascular” value ([1]; 100 mg/kg, 1 × 10^−9 M SNP) was 33.9 ± 23.5% and the “acetylcholine-induced endothelium-dependent relaxation of microvascular” value ([1]; 100 mg/kg, 1 × 10^−10 M Ach) was 2.37 ± 3.4%. For the same compound, the “sodium nitroprusside endothelium-independent relaxation of microvascular” value ([1]; 100 mg/kg, 1 × 10^−10 M SNP) was 11.9 ± 13.5%, the “acetylcholine-induced endothelium-dependent relaxation response” value ([1]; 100 mg/kg, compared with the model control group) was “significantly improve” and the “sodium nitroprusside endothelium-independent relaxation of microvascular” value ([1]; 200 mg/kg, 1 × 10^−3 M SNP) was 96.9 ± 2.9%. The “sodium nitroprusside endothelium-independent relaxation of microvascular” value ([1]; 200 mg/kg, 1 × 10^−4 M SNP) was 91.3 ± 6.2%, the “acetylcholine-induced endothelium-dependent relaxation of microvascular” value ([1]; 200 mg/kg, 1 × 10^−5 M Ach) was 96.9 ± 14.2 % and the “sodium nitroprusside endothelium-independent relaxation of microvascular” value ([1]; 200 mg/kg, 1 × 10^−5 M SNP) was 75.3 ± 12.6%. For the same compound, the “acetylcholine-induced endothelium-dependent relaxation of microvascular” value ([1]; 200 mg/kg, 1 × 10^−6 M Ach) was 73.3 ± 17.5 %, the “sodium nitroprusside endothelium-independent relaxation of microvascular” value ([1]; 200 mg/kg, 1 × 10^−6 M SNP) was 58.0 ± 21.3% and the “acetylcholine-induced endothelium-dependent relaxation of microvascular” value ([1]; 200 mg/kg, 1 × 10^−7 M Ach) was 42.2 ± 20.8%. For the same compound, the “sodium nitroprusside endothelium-independent relaxation of microvascular” value ([1]; 200 mg/kg, 1 × 10^−7 M SNP) was 44.9 ± 27.8%, the “acetylcholine-induced endothelium-dependent relaxation of microvascular” value ([1]; 200 mg/kg, 1 × 10^−8 M Ach) was 32.0 ± 20.1% and the “sodium nitroprusside endothelium-independent relaxation of microvascular” value ([1]; 200 mg/kg, 1 × 10^−8 M SNP) was 39.4 ± 24.2%. For the same compound, the “acetylcholine-induced endothelium-dependent relaxation of microvascular” value ([1]; 200 mg/kg, 1 × 10^−9 M Ach) was 18.8 ± 17.5%, the “sodium nitroprusside endothelium-independent relaxation of microvascular” value ([1]; 200 mg/kg, 1 × 10^−9 M SNP) was 28.9 ± 29.5% and the “acetylcholine-induced endothelium-dependent relaxation of microvascular” value ([1]; 200 mg/kg, 1 × 10^−10 M Ach) was 9.5 ± 12.0%. For the same compound, the “sodium nitroprusside endothelium-independent relaxation of microvascular” value ([1]; 200 mg/kg, 1 × 10^−10 M SNP) was 19.4 ± 3.05%.
